Measurements published in US9580390B2, “Indazole compounds as kinase inhibitors and method of treating cancer with same” (University Health Network, priority 2011, dated 2017).

Experiments:
Format in all cases: cell-based
[1] = test system: colon cancer cells (HCT116); assay: Cancer cell line growth inhibition (SRB assay); conditions: Homo sapiens, HCT-116; HCT116 colon cancer cells, SRB assay; read-out: Cancer Cell Line GI50 Range HCT116
[2] = test system: ovarian cancer cells (PA-1); assay: Cancer cell line growth inhibition (SRB assay); conditions: PA-1 ovarian cancer cells, SRB assay; read-out: Cancer Cell Line GI50 Range PA-1
[3] = test system: TICs (Colon 12); assay: Colon tumor-initiating cell growth inhibition (Alamar Blue); conditions: 216 h; colon TICs, 9 days, Alamar Blue; read-out: Tumor Initiating Cell GI50 Range Colon 12
[4] = test system: TICs (Ovarian 2393A); assay: Ovarian tumor-initiating cell growth inhibition (Alamar Blue); conditions: 144 h; ovarian TICs, 6 days, Alamar Blue; read-out: Tumor Initiating Cell GI50 Range Ovarain 2393A

Compound | GI50 [1] | GI50 [2] | GI50 [3] | GI50 [4]
O=C(NC(c1ccccc1)C1CC1)c1ccc2[nH]nc(-c3ccc(OC4CCN(C5COC5)CC4)cc3)c2c1 (centres unmarked) [Example A157, N-(cyclopropyl(phenyl)methyl)-3-(4-((1-(oxetan-3-yl)piperidin-4-yl)oxy)phenyl)-1H-indazole-5-carboxamide] | 100 to 500 nM | 100 to 500 nM | 100 to 500 nM | 100 to 500 nM
CN1CCC(Oc2ccc(-c3n[nH]c4ccc(C(=O)NC(c5ccccc5)C5CCCCC5)cc34)cc2)CC1 (centres unmarked) [Example A170, N-(cyclohexyl(phenyl)methyl)-3-(4-((1-methylpiperidin-4-yl)oxy)phenyl)-1H-indazole-5-carboxamide] | > 500 nM | > 500 nM | > 500 nM | > 500 nM
COC[C@@H](NC(=O)c1ccc2[nH]nc(-c3ccc(OC4CCN(C)CC4)cc3)c2c1)c1ccccc1 [Example A173, (S)-N-(2-methoxy-1-phenylethyl)-3-(4-((1-methylpiperidin-4-yl)oxy)phenyl)-5-carboxamide] | 100 to 500 nM | 100 to 500 nM | > 500 nM | 100 to 500 nM
CN1[C@@H]2CC[C@H]1C[C@@H](Oc1ccc(-c3n[nH]c4ccc(C(=O)NC(c5ccccc5)C5CC5)cc34)cc1)C2 (some centres unmarked) [Example A178] | < 100 nM | < 100 nM | 100 to 500 nM | 100 to 500 nM
CC(C)(O)C1CCN(c2ccc(-c3n[nH]c4ccc(C(=O)NC(c5ccccn5)C5CC5)cc34)cc2)CC1 (centres unmarked) [Example A180, N-(cyclopropyl(pyridin-2-yl)methyl)-3-(4-(4-(2-hydroxypropan-2-yl)piperidin-1-yl)phenyl)-1H-indazole-5-carboxamide] | < 100 nM | 100 to 500 nM | 100 to 500 nM | 100 to 500 nM
O=CN1CCC(Oc2ccc(-c3n[nH]c4ccc(C(=O)NC(c5ccccc5F)C5CC5)cc34)cc2)CC1 (centres unmarked) [Example A182] | < 100 nM | < 100 nM | < 100 nM | < 100 nM
CN1CCC(Oc2ccc(-c3n[nH]c4ccc(NC(=O)C(OC5CCCC5)c5ccccc5)cc34)cc2)CC1 (centres unmarked) [Example A183, 2-(cyclopentyloxy)-N-(3-(4-((1-methylpiperidin-4-yl)oxy)phenyl)-1H-indazol-5-yl)-2-phenylacetamide] | 100 to 500 nM | 100 to 500 nM | > 500 nM | > 500 nM
O=C(Nc1ccc2[nH]nc(-c3ccc(OC4CCN(C5COC5)CC4)cc3)c2c1)C(c1ccccc1)C1CC1 (centres unmarked) [Example A185, 2-cyclopropyl-N-(3-(4-((1-(oxetan-3-yl)piperidin-4-yl)oxy)phenyl)-1H-indazol-5-yl)-2-phenylacetamide] | 100 to 500 nM | 100 to 500 nM | 100 to 500 nM | 100 to 500 nM
O=C(Nc1ccc2[nH]nc(-c3ccc(OC4CN(C5COC5)C4)cc3)c2c1)C(c1ccsc1)N1CCCC1 (centres unmarked) [Example A189, N-(3-(4-((1-(oxetan-3-yl)azetidin-3-yl)oxy)phenyl)-1H-indazol-5-yl)-2-(pyrrolidin-1-yl)-2-(thiophen-3-yl)acetamide] | < 100 nM | < 100 nM | > 500 nM | > 500 nM
O=C(NC(c1ccccc1)C1CC1)c1ccc2[nH]nc(-c3ccc(OC4CN(C5COC5)C4)cc3)c2c1 (centres unmarked) [Example A190, N-(cyclopropyl(phenyl)methyl)-3-(4-((1-(oxetan-3-yl)azetidin-3-yl)oxy)phenyl)-1H-indazole-5-carboxamide] | 100 to 500 nM | 100 to 500 nM | 100 to 500 nM | 100 to 500 nM
CN1CCC(Oc2ccc(-c3n[nH]c4ccc(NC(=O)C(c5ccsc5)N5CCC5)cc34)cc2)CC1 (centres unmarked) [Example A191, 2-(azetidin-1-yl)-N-(3-(4-((1-methylpiperidin-4-yl)oxy)phenyl)-1H-indazol-5-yl)-2-(thiophen-3-yl)acetamide] | < 100 nM | < 100 nM | 100 to 500 nM | < 100 nM
O=C(N[C@H](c1ccccn1)C1CC1)c1ccc2[nH]nc(-c3ccc(OC4CCN(C5COC5)CC4)cc3)c2c1 [Example A197, (S)-N-(cyclopropyl(pyridin-2-yl)methyl)-3-(4-((1-(oxetan-3-yl)piperidin-4-yl)oxy)phenyl)-1H-indazole-5-carboxamide] | < 100 nM | < 100 nM | < 100 nM | < 100 nM
CN1CCC(Oc2ccc(-c3n[nH]c4ccc(C(=O)NC(c5ccccn5)C5CC5)cc34)cc2Cl)CC1 (centres unmarked) [Example A198, 3-(3-chloro-4-((1-methylpiperidin-4-yl)oxy)phenyl)-N-(cyclopropyl(pyridin-2-yl)methyl)-1H-indazole-5-carboxamide] | < 100 nM | 100 to 500 nM | 100 to 500 nM | 100 to 500 nM

Second part, the compound after the results:

GI50 [1] | GI50 [2] | GI50 [3] | GI50 [4] | Compound
< 100 nM | < 100 nM | 100 to 500 nM | 100 to 500 nM | CC1(O)CCN(c2ccc(-c3n[nH]c4ccc(NC(=O)C(c5ccsc5)N5CCCC5)cc34)cc2)CC1 (centres unmarked) [Example A89, N-(3-(4-(4-hydroxy-4-methylpiperidin-1-yl)phenyl)-1H-indazol-5-yl)-2-(pyrrolidin-1-yl)-2-(thiophen-3-yl)acetamide]
< 100 nM | < 100 nM | 100 to 500 nM | < 100 nM | CN1CCC(Oc2ccc(-c3n[nH]c4ccc(NC(=O)C(c5cccs5)N5CCCC5)cc34)cc2)CC1 (centres unmarked) [Example A91, N-(3-(4-((1-methylpiperidin-4-yl)oxy)phenyl)-1H-indazol-5-yl)-2-(pyrrolidin-1-yl)-2-(thiophen-2-yl)acetamide]
< 100 nM | < 100 nM | 100 to 500 nM | 100 to 500 nM | COCCN1CCC(Oc2ccc(-c3n[nH]c4ccc(C(=O)NC(c5ccccc5)C5CC5)cc34)cc2)CC1 (centres unmarked) [Example A98, N-(cyclopropyl(phenyl)methyl)-3-(4-((1-(2-methoxyethyl)piperidin-4-yl)oxy)phenyl)-1H-indazole-5-carboxamide]
< 100 nM | < 100 nM | < 100 nM | 100 to 500 nM | Cc1ccccc1C(NC(=O)c1ccc2[nH]nc(-c3ccc(OC4CCN(C)CC4)cc3)c2c1)C1CC1 (centres unmarked) [Example A132, N-(cyclopropyl(o-tolyl)methyl)-3-(4-((1-methylpiperidin-4-yl)oxy)phenyl)-1H-indazole-5-carboxamide]
< 100 nM | 100 to 500 nM | 100 to 500 nM | > 500 nM | C[C@@H](NC(=O)c1ccc2[nH]nc(-c3ccc(OC4CCN(C)CC4)cc3)c2c1)c1ccccc1F [Example A134, (R)-N-(1-(2-fluorophenyl)ethyl)-3-(4-((1-methylpiperidin-4-yl)oxy)phenyl)-1H-indazole-5-carboxamide]
< 100 nM | < 100 nM | < 100 nM | < 100 nM | CC(C)C(NC(=O)c1ccc2[nH]nc(-c3ccc(OC4CCN(C)CC4)cc3)c2c1)c1ccccc1Cl (centres unmarked) [Example A144, N-(1-(2-chlorophenyl)-2-methylpropyl)-3-(4-((1-methylpiperidin-4-yl)oxy)phenyl)-1H-indazole-5-carboxamide]
< 100 nM | < 100 nM | 100 to 500 nM | < 100 nM | CN1CCC(Oc2ccc(-c3n[nH]c4ccc(C(=O)NC(c5cccs5)C5CC5)cc34)cc2)CC1 (centres unmarked) [Example A147, N-(cyclopropyl(thiophen-2-yl)methyl)-3-(4-((1-methylpiperidin-4-yl)oxy)phenyl)-1H-indazole-5-carboxamide]
< 100 nM | 100 to 500 nM | 100 to 500 nM | 100 to 500 nM | COc1ccccc1C(NC(=O)c1ccc2[nH]nc(-c3ccc(OC4CCN(C)CC4)cc3)c2c1)C1CC1 (centres unmarked) [Example A151, N-(cyclopropyl(2-methoxyphenyl)methyl)-3-(4-((1-methylpiperidin-4-yl)oxy)phenyl)-1H-indazole-5-carboxamide]
< 100 nM | 100 to 500 nM | 100 to 500 nM | 100 to 500 nM | O=CN1CCC(Oc2ccc(-c3n[nH]c4ccc(C(=O)NC(c5ccccn5)C5CC5)cc34)cc2)CC1 (centres unmarked) [Example A160, N-(cyclopropyl(pyridin-2-yl)methyl)-3-(4-((1-formylpiperidin-4-yl)oxy)phenyl)-1H-indazole-5-carboxamide]
< 100 nM | < 100 nM | 100 to 500 nM | < 100 nM | O=C(NC(c1ccccn1)C1CC1)c1ccc2[nH]nc(-c3ccc(OC4CCN(C5COC5)CC4)cc3)c2c1 (centres unmarked) [Example A171, N-(cyclopropyl(pyridin-2-yl)methyl)-3-(4-((1-(oxetan-3-yl)piperidin-4-yl)oxy)phenyl)-1H-indazole-5-carboxamide]
< 100 nM | < 100 nM | < 100 nM | < 100 nM | O=C(Nc1ccc2[nH]nc(-c3ccc(N4CCOCC4)cc3)c2c1)C(c1ccsc1)N1CCC1 (centres unmarked) [Example A172, 2-(azetidin-1-yl)-N-(3-(4-morpholinophenyl)-1H-indazol-5-yl)-2-(thiophen-3-yl)acetamide]
< 100 nM | 100 to 500 nM | 100 to 500 nM | 100 to 500 nM | CC[C@@H](NC(=O)c1ccc2[nH]nc(-c3ccc(OC4CCN(C)CC4)cc3)c2c1)c1cccc(OC)c1 [Example A174, (R)-N-(1-(3-methoxyphenyl)propyl)-3-(4-((1-methylpiperidin-4-yl)oxy)phenyl)-1H-indazole-5-carboxamide]
< 100 nM | 100 to 500 nM | 100 to 500 nM | 100 to 500 nM | CN1CCC(Oc2ccc(-c3n[nH]c4ccc(C(=O)NC(c5ccccc5)C5CCOCC5)cc34)cc2)CC1 (centres unmarked) [Example A177, 3-(4-((1-methylpiperidin-4-yl)oxy)phenyl)-N-(phenyl(tetrahydro-2H-pyran-4-yl)methyl)-1H-indazole-5-carboxamide]
